Assay results as given in ChEMBL document CHEMBL4196084 (Eur J Med Chem, 2018).
The source made the active and inactive calls. The calls are words filed in the database; no cut-off is given here.

Assays:
[1] = target: T1, Acetylcholinesterase (Homo sapiens, UniProt P22303)
Description: Inhibition of human erythrocyte AChE using acetylthiocholine iodide as substrate preincubated for 5 mins followed by substrate addition measured at 2 mins time interval by Ellman's method

[2] = target: Cholinesterase (Homo sapiens, UniProt P06276)
Description: Inhibition of human plasmatic BuChE using butyrylthiocholine iodide as substrate preincubated for 5 mins followed by substrate addition measured at 2 mins time interval by Ellman's method

[3] = target: T2, Muscarinic acetylcholine receptor M1 (Homo sapiens, UniProt P11229); assay type: functional, cell-based, CHO
T2 sequence (P11229 whole entry): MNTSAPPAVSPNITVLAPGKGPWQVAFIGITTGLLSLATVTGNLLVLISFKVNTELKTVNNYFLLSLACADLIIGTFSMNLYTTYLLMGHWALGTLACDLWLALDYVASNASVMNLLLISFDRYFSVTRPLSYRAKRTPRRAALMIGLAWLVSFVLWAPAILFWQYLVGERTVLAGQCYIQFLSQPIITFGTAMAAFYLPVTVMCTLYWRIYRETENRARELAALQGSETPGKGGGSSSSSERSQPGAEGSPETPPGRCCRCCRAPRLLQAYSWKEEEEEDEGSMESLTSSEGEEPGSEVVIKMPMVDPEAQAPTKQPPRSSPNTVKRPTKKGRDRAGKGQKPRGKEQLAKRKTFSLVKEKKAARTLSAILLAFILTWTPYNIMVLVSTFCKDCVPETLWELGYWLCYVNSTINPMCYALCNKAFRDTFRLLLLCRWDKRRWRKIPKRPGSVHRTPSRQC

[4] = system: HepG2; experiment: cells; assay type: ADME, cell-based; settings: Homo sapiens, HepG2, 24 h
Description: Cytotoxicity against human HepG2 cells assessed as reduction in cell viability after 24 hrs by MTT assay

[5] = in vitro; settings: PAMPA
[6] = Solubility of the compound in PBS buffer; assay type: physicochemical
[7] = in vitro; settings: PAMPA; remark: listed apart in the source
[8] = target: T3, Muscarinic acetylcholine receptor M1 (Homo sapiens) (UniProt P11229); experiment: Positive allosteric modulation of human M1 mAChR expressed in CHO cells assessed as increase in oxotremorine M-stimulated calcium influx preincubated for 10 mins followed by oxotremorine M addition by Fluo-4 NW dye based fluorescence assay; assay type: functional, cell-based
T3 sequence (whole entry): T2 sequence (P11229 whole entry)

[9] = target: T1, Acetylcholinesterase; experiment: Mixed type inhibition of human erythrocyte AChE assessed as enzyme-substrate-inhibitor complex using varying levels of acetylthiocholine iodide as substrate preincubated for 5 mins followed by substrate addition by Lineweaver-Burk plot analysis
[10] = target: T1, Acetylcholinesterase; experiment: Mixed type inhibition of human erythrocyte AChE assessed as enzyme-inhibitor complex using varying levels of acetylthiocholine iodide as substrate preincubated for 5 mins followed by substrate addition by Lineweaver-Burk plot analysis

T1 sequence (P22303 whole entry): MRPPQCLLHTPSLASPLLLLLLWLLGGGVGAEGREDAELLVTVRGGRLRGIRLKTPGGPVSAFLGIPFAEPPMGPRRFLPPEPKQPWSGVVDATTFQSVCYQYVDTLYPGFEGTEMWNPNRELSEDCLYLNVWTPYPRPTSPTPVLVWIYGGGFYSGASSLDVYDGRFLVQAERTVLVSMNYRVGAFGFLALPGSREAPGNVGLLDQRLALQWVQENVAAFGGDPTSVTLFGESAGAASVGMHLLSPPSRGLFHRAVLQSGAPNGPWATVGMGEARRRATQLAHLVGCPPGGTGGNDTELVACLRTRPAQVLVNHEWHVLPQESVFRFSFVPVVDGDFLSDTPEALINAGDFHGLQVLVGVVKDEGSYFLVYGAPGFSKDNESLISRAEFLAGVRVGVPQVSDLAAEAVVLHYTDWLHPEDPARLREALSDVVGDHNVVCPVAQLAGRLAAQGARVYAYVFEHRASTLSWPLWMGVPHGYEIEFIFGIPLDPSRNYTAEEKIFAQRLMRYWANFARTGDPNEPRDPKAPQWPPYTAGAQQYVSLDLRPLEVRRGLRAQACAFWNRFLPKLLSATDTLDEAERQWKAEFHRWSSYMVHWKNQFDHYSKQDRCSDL
Chain of Cholinesterase (P06276 whole entry): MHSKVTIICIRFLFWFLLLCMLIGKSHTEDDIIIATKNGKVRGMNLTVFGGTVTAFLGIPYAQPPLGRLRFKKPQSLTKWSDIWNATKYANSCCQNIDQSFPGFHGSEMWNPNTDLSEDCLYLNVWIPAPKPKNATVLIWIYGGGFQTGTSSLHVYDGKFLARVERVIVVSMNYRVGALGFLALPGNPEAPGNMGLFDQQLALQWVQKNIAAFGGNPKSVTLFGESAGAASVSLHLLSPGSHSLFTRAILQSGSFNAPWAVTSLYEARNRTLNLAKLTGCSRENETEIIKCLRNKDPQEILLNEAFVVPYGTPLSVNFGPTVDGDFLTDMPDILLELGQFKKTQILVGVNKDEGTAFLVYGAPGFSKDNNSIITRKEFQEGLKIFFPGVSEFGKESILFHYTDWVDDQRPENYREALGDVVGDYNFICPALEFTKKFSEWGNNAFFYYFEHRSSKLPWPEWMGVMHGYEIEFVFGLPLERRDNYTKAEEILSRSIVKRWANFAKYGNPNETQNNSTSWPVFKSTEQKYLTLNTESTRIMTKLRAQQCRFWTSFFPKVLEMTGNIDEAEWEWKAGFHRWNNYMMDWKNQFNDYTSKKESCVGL

SMILES: COc1ccc(Cn2cc(C(=O)NCCCCCCCCNc3c4c(nc5ccc(OC)cc35)CCCC4)c(=O)c3ccccc32)cc1
- IC50 [1]: 74.3 µM
- IC50 [2]: 12.4 µM
- IC50 [3]: 7.86 µM

SMILES: Nc1c2c(nc3cc(Cl)ccc13)CCCC2
- IC50 [3]: 6.09 µM
- IC50 [4]: 43200 nM

SMILES: COc1ccc(Cn2cc(C(=O)NCCCCCNc3c4c(nc5ccc(OC)cc35)CCCC4)c(=O)c3ccccc32)cc1
- IC50 [1]: 8.02 µM
- IC50 [2]: 6.16 µM
- IC50 [3]: 1.37 µM

SMILES: COc1ccc(Cn2cc(C(=O)NCCCCCCCNc3c4c(nc5ccc(OC)cc35)CCCC4)c(=O)c3ccccc32)cc1
- Papp at 100 µM [5]: 9.25 ×10⁻⁶ cm/s
- solubility [6]: Insoluble
- IC50 [1]: 1.53 µM
- IC50 [2]: 49.3 µM
- IC50 [3]: 11.4 µM
- IC50 [4]: 600 nM

SMILES: COc1ccc(Cn2cc(C(=O)NCCNc3c4c(nc5ccc(OC)cc35)CCCC4)c(=O)c3ccccc32)cc1
- Papp at 100 µM [5]: 1.65 ×10⁻⁶ cm/s
- solubility [6]: Insoluble
- IC50 [1]: 2.64 µM
- IC50 [2]: 0.408 µM
- IC50 [3]: 3.71 µM
- IC50 [4]: 1630 nM

SMILES: CC(=O)[C@H]1CC[C@H]2[C@@H]3CCC4=CC(=O)CC[C@]4(C)[C@H]3CC[C@]12C [PROGESTERONE]
- Papp at 100 µM [5]: 8.6 ×10⁻⁶ cm/s
- Papp at 100 µM [7]: 10.8 ×10⁻⁶ cm/s

SMILES: COc1ccc(Cn2cc(C(=O)O)c(=O)c3ccccc32)cc1
- Activity [8]: Active
- IC50 [1]: > 1000 µM
- IC50 [2]: > 1000 µM

SMILES: C[C@]12CC[C@H]3[C@@H](CCC4=CC(=O)CC[C@@]43C)[C@@H]1CC[C@@H]2O [TESTOSTERONE]
- Papp at 100 µM [5]: 8.5 ×10⁻⁶ cm/s
- Papp at 100 µM [7]: 11.6 ×10⁻⁶ cm/s

SMILES: COc1ccc(Cn2cc(C(=O)NCCCCCCNc3c4c(nc5cc(Cl)ccc35)CCCC4)c(=O)c3ccccc32)cc1
- IC50 [1]: 0.0941 µM
- IC50 [2]: 13.4 µM
- IC50 [3]: 2.78 µM

SMILES: COc1ccc(Cn2cc(C(=O)NCCCCCCCNc3c4c(nc5cc(Cl)ccc35)CCCC4)c(=O)c3ccccc32)cc1
- Papp at 100 µM [5]: 2.35 ×10⁻⁶ cm/s
- solubility [6]: Insoluble
- IC50 [1]: 0.0517 µM
- IC50 [2]: 3.34 µM
- IC50 [3]: 5.35 µM
- IC50 [4]: > 40000 nM

SMILES: COc1ccc(Cn2cc(C(=O)NCCCNc3c4c(nc5ccc(OC)cc35)CCCC4)c(=O)c3ccccc32)cc1
- Papp at 100 µM [5]: 4.85 ×10⁻⁶ cm/s
- solubility [6]: Insoluble
- IC50 [1]: 2.24 µM
- IC50 [2]: 1.03 µM
- IC50 [3]: 2.48 µM
- IC50 [4]: 2420 nM

SMILES: COc1ccc(Cn2cc(C(=O)NCCCCNc3c4c(nc5cc(Cl)ccc35)CCCC4)c(=O)c3ccccc32)cc1
- IC50 [1]: 0.0896 µM
- IC50 [2]: 3.12 µM
- IC50 [3]: 4.11 µM

SMILES: COc1ccc(Cn2cc(C(=O)NCCNc3c4c(nc5cc(Cl)ccc35)CCCC4)c(=O)c3ccccc32)cc1
- Papp at 100 µM [5]: 2.37 ×10⁻⁶ cm/s
- solubility [6]: Insoluble
- IC50 [1]: 0.0745 µM
- IC50 [2]: 0.0833 µM
- IC50 [3]: 4.23 µM
- IC50 [4]: 3480 nM

SMILES: COc1ccc2nc3c(c(N)c2c1)CCCC3
- IC50 [3]: 3.71 µM
- IC50 [4]: 44400 nM

SMILES: COc1ccc(Cn2cc(C(=O)NCCNc3c4c(nc5ccccc35)CCCC4)c(=O)c3ccccc32)cc1
- Papp at 100 µM [5]: 1.8 ×10⁻⁶ cm/s
- solubility [6]: Insoluble
- IC50 [1]: 0.187 µM
- IC50 [2]: 0.0589 µM
- IC50 [3]: 0.658 µM
- IC50 [4]: 1440 nM

SMILES: COc1ccc(Cn2cc(C(=O)NCCCCCCNc3c4c(nc5ccccc35)CCCC4)c(=O)c3ccccc32)cc1
- Papp at 100 µM [5]: 2.28 ×10⁻⁶ cm/s
- solubility [6]: Insoluble
- IC50 [1]: 0.194 µM
- IC50 [2]: 0.28 µM
- IC50 [3]: 1.49 µM
- IC50 [4]: 2720 nM

SMILES: COc1ccc(Cn2cc(C(=O)NCCCCCCCCNc3c4c(nc5ccccc35)CCCC4)c(=O)c3ccccc32)cc1
- IC50 [1]: 0.768 µM
- IC50 [2]: 1.28 µM
- IC50 [3]: 2.05 µM

SMILES: COc1ccc(Cn2cc(C(=O)NCCCNc3c4c(nc5cc(Cl)ccc35)CCCC4)c(=O)c3ccccc32)cc1
- Ki [9]: 1.57 nM
- Papp at 100 µM [5]: 3.08 ×10⁻⁶ cm/s
- solubility [6]: Insoluble
- Ki [10]: 3.28 nM
- IC50 [1]: 0.0419 µM
- IC50 [2]: 3.72 µM
- IC50 [3]: 4.01 µM
- IC50 [4]: 4990 nM

SMILES: CN(C)CCCN1c2ccccc2Sc2ccccc21 [PROMAZINE]
- Papp at 100 µM [5]: 6.6 ×10⁻⁶ cm/s
- Papp at 100 µM [7]: 9.4 ×10⁻⁶ cm/s

SMILES: COc1ccc(Cn2cc(C(=O)NCCCCNc3c4c(nc5ccccc35)CCCC4)c(=O)c3ccccc32)cc1
- IC50 [1]: 0.491 µM
- IC50 [2]: 1.32 µM
- IC50 [3]: 1.59 µM

SMILES: COc1ccc(Cn2cc(C(=O)NCCCCCNc3c4c(nc5ccccc35)CCCC4)c(=O)c3ccccc32)cc1
- IC50 [1]: 0.293 µM
- IC50 [2]: 0.823 µM
- IC50 [3]: 1.48 µM

SMILES: COc1ccc(Cn2cc(C(=O)NCCCNc3c4c(nc5ccccc35)CCCC4)c(=O)c3ccccc32)cc1
- Papp at 100 µM [5]: 2.6 ×10⁻⁶ cm/s
- solubility [6]: Insoluble
- IC50 [1]: 0.129 µM
- IC50 [2]: 0.674 µM
- IC50 [3]: 0.455 µM
- IC50 [4]: 2170 nM

SMILES: COc1ccc(Cn2cc(C(=O)NCCCCCNc3c4c(nc5cc(Cl)ccc35)CCCC4)c(=O)c3ccccc32)cc1
- IC50 [1]: 0.18 µM
- IC50 [2]: 7.74 µM
- IC50 [3]: 3.27 µM

SMILES: COc1ccc(Cn2cc(C(=O)NCCCCCCNc3c4c(nc5ccc(OC)cc35)CCCC4)c(=O)c3ccccc32)cc1
- IC50 [1]: 10 µM
- IC50 [2]: 16.6 µM
- IC50 [3]: 8.61 µM

SMILES: COc1ccc(Cn2cc(C(=O)NCCCCCCCNc3c4c(nc5ccccc35)CCCC4)c(=O)c3ccccc32)cc1
- IC50 [1]: 0.194 µM
- IC50 [2]: 1.19 µM
- IC50 [3]: 2.14 µM

SMILES: COc1ccc(Cn2cc(C(=O)NCCCCNc3c4c(nc5ccc(OC)cc35)CCCC4)c(=O)c3ccccc32)cc1
- IC50 [1]: 9.5 µM
- IC50 [2]: 1.08 µM
- IC50 [3]: 1.07 µM

SMILES: COc1ccc(Cn2cc(C(=O)NCCCCCCCCNc3c4c(nc5cc(Cl)ccc35)CCCC4)c(=O)c3ccccc32)cc1
- IC50 [1]: 0.119 µM
- IC50 [2]: 37.2 µM
- IC50 [3]: 9.45 µM
